The results in this text go back to patent publication US11446287B2, “Compounds and methods for EP300 or CBP modulation and indications therefor” (Opna Immuno-Oncology SA, priority 2019, dated 2022).

The target in the experiment is T1, Recombinant human BRD4 containing dual bromodomains (BRD4-BD12 (1-477)) (Homo sapiens, UniProt O60885).
T1 construct: Recombinant human BRD4 containing dual bromodomains (BRD4-BD12 (1-477)); made in house; host or cells: E. coli BL21-CodonPlus (DE3), modified pET vector
Briefly: BRD4 Alphascreen binding assay. Put shortly:
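AlphaScreen proximity between Ni-chelate-bound BRD4-BD12 (1-477) and streptavidin-captured H4 K5/K8/K12/K16-acetyl peptide measured after 1 h room-temperature compound incubation and 30 min with 7.5 μg/ml beads. Buffer: 50 mM HEPES pH 7.5, 50 mM NaCl, 0.01% BSA, 0.01% Triton X-100; data plate-normalized and four-parameter fit for IC50.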

Turning to `Cc1noc(C)c1-c1cnc2c(-c3cc(C(=O)O)ccc3Cl)c(C(F)(F)F)n([C@@H](C)c3ccccn3)c2c1` [P-0257, (S)-4-chloro-3-(6-(3,5-dimethylisoxazol-4-yl)-1-(1-(pyridin-2-yl)ethyl)-2-(trifluoromethyl)-1H-pyrrolo[3,2-b]pyridin-3-yl)benzoic acid], the IC50 is 8 to 1000 µM.

`CCOc1cc(C(=O)O)cc(OCC)c1-n1cc(-c2cnn(CS(C)(=O)=O)c2)c2ncc(-c3c(C)noc3C)cc21` [P-0258, 4-(6-(3,5-dimethylisoxazol-4-yl)-3-(1-((methylsulfonyl)methyl)-1H-pyrazol-4-yl)-1H-pyrrolo[3,2-b]pyridin-1-yl)-3,5-diethoxybenzoic acid]: the IC50 lay within 1 to 8 µM.

With `CCOc1cc(C(=O)O)cc(OCC)c1-n1cc(-c2cn(C(C)C)nc2C)c2ncc(-c3c(C)noc3C)cc21` [P-0259, 4-(6-(3,5-dimethylisoxazol-4-yl)-3-(1-isopropyl-3-methyl-1H-pyrazol-4-yl)-1H-pyrrolo[3,2-b]pyridin-1-yl)-3,5-diethoxybenzoic acid], the 50% inhibitory concentration (IC50) was in the range of 1 to 8 µM.

With `CCOc1cc(C(=O)O)cc(OCC)c1-n1cc(-c2cnn(CC(C)(C)O)c2)c2ncc(-c3c(C)noc3C)cc21` [P-0260, 4-(6-(3,5-dimethylisoxazol-4-yl)-3-(1-(2-hydroxy-2-methylpropyl)-1H-pyrazol-4-yl)-1H-pyrrolo[3,2-b]pyridin-1-yl)-3,5-diethoxybenzoic acid], the IC50 was 1 to 8 µM.

On to `CCOc1cc(C(=O)O)cc(OCC)c1-n1cc(-c2cnn(C(F)F)c2)c2ncc(-c3c(C)noc3C)cc21` [P-0261, 4-(3-(1-(difluoromethyl)-1H-pyrazol-4-yl)-6-(3,5-dimethylisoxazol-4-yl)-1H-pyrrolo[3,2-b]pyridin-1-yl)-3,5-diethoxybenzoic acid], for which the IC50 lay within 1 to 8 µM.

`CCOc1cc(C(=O)O)cc(OCC)c1-n1cc(-c2cnn(CCN(C)C)c2)c2ncc(-c3c(C)noc3C)cc21` [P-0262, 4-(3-(1-(2-(dimethylamino)ethyl)-1H-pyrazol-4-yl)-6-(3,5-dimethylisoxazol-4-yl)-1H-pyrrolo[3,2-b]pyridin-1-yl)-3,5-diethoxybenzoic acid]: the IC50 was 1 to 8 µM.

For the molecule `CCOc1cc(C(=O)O)cc(OCC)c1-n1cc(-c2cn(C)nc2C)c2ncc(-c3c(C)noc3C)cc21` [P-0263, 4-(3-(1,3-dimethyl-1H-pyrazol-4-yl)-6-(3,5-dimethylisoxazol-4-yl)-1H-pyrrolo[3,2-b]pyridin-1-yl)-3,5-diethoxybenzoic acid], the half-maximal inhibitory concentration (IC50) is 1 to 8 µM.

As for `CCOc1cc(C(=O)O)cc(OCC)c1-n1cc(-c2cnn(CC3CC3)c2)c2ncc(-c3c(C)noc3C)cc21` [P-0264, 4-(3-(1-(cyclopropylmethyl)-1H-pyrazol-4-yl)-6-(3,5-dimethylisoxazol-4-yl)-1H-pyrrolo[3,2-b]pyridin-1-yl)-3,5-diethoxybenzoic acid], the IC50 is 1 to 8 µM.

Regarding `CCOc1cc(C(=O)O)cc(OCC)c1-n1cc(-c2cnn(C3CC3)c2)c2ncc(-c3c(C)noc3C)cc21` [P-0265, 4-(3-(1-cyclopropyl-1H-pyrazol-4-yl)-6-(3,5-dimethylisoxazol-4-yl)-1H-pyrrolo[3,2-b]pyridin-1-yl)-3,5-diethoxybenzoic acid], the IC50 was in the range of 1 to 8 µM.

For the molecule `CCOc1cc(C(=O)O)cc(OCC)c1-n1cc(-c2cnn(CCC#N)c2)c2ncc(-c3c(C)noc3C)cc21` [P-0266, 4-(3-(1-(2-cyanoethyl)-1H-pyrazol-4-yl)-6-(3,5-dimethylisoxazol-4-yl)-1H-pyrrolo[3,2-b]pyridin-1-yl)-3,5-diethoxybenzoic acid], the IC50 was 1 to 8 µM.

With `CCOc1cc(C(=O)O)cc(OCC)c1-n1cc(-c2cnn(CC(=O)N(C)C)c2)c2ncc(-c3c(C)noc3C)cc21` [P-0267, 4-(3-(1-(2-(dimethylamino)-2-oxoethyl)-1H-pyrazol-4-yl)-6-(3,5-dimethylisoxazol-4-yl)-1H-pyrrolo[3,2-b]pyridin-1-yl)-3,5-diethoxybenzoic acid], the IC50 lay in the range of 1 to 8 µM.

In the case of `Cc1noc(C)c1-c1cnc2c(c1)c(-c1cc(C(=O)O)ccc1OC(F)(F)F)cn2-c1ccc(F)cc1F` [P-0268, 3-(1-(2,4-difluorophenyl)-5-(3,5-dimethylisoxazol-4-yl)-1H-pyrrolo[2,3-b]pyridin-3-yl)-4-(trifluoromethoxy)benzoic acid], the IC50 was 1 to 8 µM.

For the molecule `Cc1noc(C)c1-c1cnc2c(-c3ccc(F)cc3F)cn(-c3c(OC(C)C)cc(C(=O)O)cc3OC(C)C)c2c1` [P-0269, 4-(3-(2,4-difluorophenyl)-6-(3,5-dimethylisoxazol-4-yl)-1H-pyrrolo[3,2-b]pyridin-1-yl)-3,5-diisopropoxybenzoic acid], the IC50 lay in the range of 1 to 8 µM.

Take `CCOc1cc(C(=O)O)cc(OCC)c1-n1cc(CC2CCC2)c2ncc(-n3c(C)nnc3C)cc21` [P-0270, 4-(3-(cyclobutylmethyl)-6-(3,5-dimethyl-4H-1,2,4-triazol-4-yl)-1H-pyrrolo[3,2-b]pyridin-1-yl)-3,5-diethoxybenzoic acid]: the IC50 was in the range of 8 to 1000 µM.

Regarding `CCOc1cc(C(=O)O)cc(OCC)c1-n1cc(C2CCC(F)(F)CC2)c2ncc(-c3c(C)noc3C)cc21` [P-0271, 4-(3-(4,4-difluorocyclohexyl)-6-(3,5-dimethylisoxazol-4-yl)-1H-pyrrolo[3,2-b]pyridin-1-yl)-3,5-diethoxybenzoic acid], the half-inhibitory concentration (IC50) lay in the range of 8 to 1000 µM.

For the molecule `Cc1noc(C)c1-c1cnc2c(c1)c(-c1cnn(CC(=O)O)c1)cn2-c1ncccc1C#CC1CC1` [P-0272, 2-(4-(1-(3-(cyclopropylethynyl)pyridin-2-yl)-5-(3,5-dimethylisoxazol-4-yl)-1H-pyrrolo[2,3-b]pyridin-3-yl)-1H-pyrazol-1-yl)acetic acid], the half-maximal inhibitory concentration (IC50) lay in the range of 8 to 1000 µM.

As to `Cc1noc(C)c1-c1cnc2c(c1)c(-c1ccc(C(=O)O)cc1OC(F)F)cn2-c1ccccc1` [P-0273, 3-(difluoromethoxy)-4-(5-(3,5-dimethylisoxazol-4-yl)-1-phenyl-1H-pyrrolo[2,3-b]pyridin-3-yl)benzoic acid], the IC50 lay in the range of 1 to 8 µM.

With `Cc1noc(C)c1-c1cnc2c(-c3ccccc3)cn(-c3cc(C(=O)O)ccc3OC(F)(F)F)c2c1` [P-0274, 3-(6-(3,5-dimethylisoxazol-4-yl)-3-phenyl-1H-pyrrolo[3,2-b]pyridin-1-yl)-4-(trifluoromethoxy)benzoic acid], the IC50 lay in the range of 1 to 8 µM.

Regarding `Cc1noc(C)c1-c1cnc2c(c1)c(-c1ccc(C(=O)O)cc1OC(C)C)cn2-c1ccccc1` [P-0275, 4-(5-(3,5-dimethylisoxazol-4-yl)-1-phenyl-1H-pyrrolo[2,3-b]pyridin-3-yl)-3-isopropoxybenzoic acid], the IC50 lay in the range of 1 to 8 µM.

In the case of `Cc1noc(C)c1-c1cnc2c(c1)c(-c1ccc(C(=O)O)cc1OC1CCC1)cn2-c1ccccc1` [P-0276, 3-cyclobutoxy-4-(5-(3,5-dimethylisoxazol-4-yl)-1-phenyl-1H-pyrrolo[2,3-b]pyridin-3-yl)benzoic acid], the IC50 was in the range of 1 to 8 µM.

In the case of `Cc1noc(C)c1-c1cnc2c(c1)c(-c1ccc(C(=O)O)cc1OCC(F)F)cn2-c1ccccc1` [P-0277, 3-(2,2-difluoroethoxy)-4-(5-(3,5-dimethylisoxazol-4-yl)-1-phenyl-1H-pyrrolo[2,3-b]pyridin-3-yl)benzoic acid], the IC50 lay in the range of 1 to 8 µM.

With `Cc1noc(C)c1-c1cnc2c(c1)c(-c1ccc(C(=O)O)cc1OCC(F)(F)F)cn2-c1ccccc1` [P-0278, 4-(5-(3,5-dimethylisoxazol-4-yl)-1-phenyl-1H-pyrrolo[2,3-b]pyridin-3-yl)-3-(2,2,2-trifluoroethoxy)benzoic acid], the 50% inhibitory concentration (IC50) lay in the range of 1 to 8 µM.

Take `Cc1noc(C)c1-c1cnc2c(c1)c(-c1ccc(C(=O)O)cc1OC(F)(F)F)cn2-c1ccc(F)cc1` [P-0279, 4-(5-(3,5-dimethylisoxazol-4-yl)-1-(4-fluorophenyl)-1H-pyrrolo[2,3-b]pyridin-3-yl)-3-(trifluoromethoxy)benzoic acid]: the IC50 was in the range of 1 to 8 µM.

Turning to `Cc1noc(C)c1-c1cnc2c(c1)c(-c1cnn(CC(=O)O)c1)cn2C(C1CC1)C1CC1` [P-0280, 2-(4-(1-(dicyclopropylmethyl)-5-(3,5-dimethylisoxazol-4-yl)-1H-pyrrolo[2,3-b]pyridin-3-yl)-1H-pyrazol-1-yl)acetic acid], the IC50 was 8 to 1000 µM.

Consider `Cc1noc(C)c1-c1cnc2c(c1)c(-c1ccc(C(=O)O)cc1OC(F)(F)F)cn2-c1cnc(N2CCC2)nc1` [P-0281, 4-(1-(2-(azetidin-1-yl)pyrimidin-5-yl)-5-(3,5-dimethylisoxazol-4-yl)-1H-pyrrolo[2,3-b]pyridin-3-yl)-3-(trifluoromethoxy)benzoic acid], for which the IC50 was 1 to 8 µM.

Turning to `Cc1noc(C)c1-c1cnc2c(c1)c(-c1ccc(C(=O)O)cc1OC(F)(F)F)cn2-c1ccc(S(C)(=O)=O)cc1` [P-0282, 4-(5-(3,5-dimethylisoxazol-4-yl)-1-(4-(methylsulfonyl)phenyl)-1H-pyrrolo[2,3-b]pyridin-3-yl)-3-(trifluoromethoxy)benzoic acid], the 50% inhibitory concentration (IC50) is 0.0001 to 1 µM.

For `Cc1noc(C)c1-c1cnc2c(c1)c(-c1c(Cl)cc(C(=O)O)cc1OC(C)C)cn2C(C1CC1)C1CC1` [P-0283, 3-chloro-4-(1-(dicyclopropylmethyl)-5-(3,5-dimethylisoxazol-4-yl)-1H-pyrrolo[2,3-b]pyridin-3-yl)-5-isopropoxybenzoic acid], the IC50 lay in the range of 1 to 8 µM.

With `Cc1noc(C)c1-c1cnc2c(c1)c(-c1cc(C(=O)O)ccc1OC(F)(F)F)cn2C(C1CC1)C1CC1` [P-0284, 3-(1-(dicyclopropylmethyl)-5-(3,5-dimethylisoxazol-4-yl)-1H-pyrrolo[2,3-b]pyridin-3-yl)-4-(trifluoromethoxy)benzoic acid], the IC50 was in the range of 8 to 1000 µM.

As to `Cc1noc(C)c1-c1cnc2c(c1)c(-c1ccc(C(=O)O)cc1OC(F)(F)F)cn2[C@H]1CCOC1` [P-0285, (S)-4-(5-(3,5-dimethylisoxazol-4-yl)-1-(tetrahydrofuran-3-yl)-1H-pyrrolo[2,3-b]pyridin-3-yl)-3-(trifluoromethoxy)benzoic acid], the IC50 fell in the range of 8 to 1000 µM.
